Results: patent US20120204273A1, “COMPOSITIONS RELATING TO A PHOSPHOPROTEIN AND METHODS OF USE” (SANFORD-BURNHAM MEDICAL RESEARCH INSTITUTE, priority 2010, published 2012)

System: HA-CDP138
Assay: Phosphorylation of HA-CDP138 in CHO-T cells (anti-HA IP, PAS antibody blot)
Assay type: cell-based, hamster
Details: insulin 100 nM, 15 min
Excerpt: FIG. 1, panels A-D, show an uncharacterized C2 domain-containing protein encoded by 5730419I09Rik is a novel phosphoprotein identified in insulin-stimulated adipocytes using a SILAC phosphoproteomic approach. (A): Schematic procedure for SILAC quantitative proteomics used for identification and quantification of peptide from CDP138 (5730419I09Rik). Top right panel: quantification of CDP138 peptide from different groups of adipocytes. Lower right panel: Schematic diagram of CDP138 and the identified phosphorylation sites. (B): Confirmation of CDP138 phosphorylation induced by insulin. CHO-T cells expressing HA-CDP138, or differentiated 3T3-L1 adipocytes were treated with or without insulin (100 nM) for 15 min. A third sample was pretreated with wortmannin (100 nM, WM) for 20 min or LY294002 (50 μM, LY) for 1 hour before insulin stimulation. […] CDP138, pS473-Akt and Akt protein were also detected with total cell lysates. […] Whole cell extracts (25 μg total protein) from different tissues (lean mice, left panel) and epididymal fat pads from both ob/ob and lean mice (24 weeks old, Jackson Lab, Bar Harbor, Me.; middle panel) were analyzed by immunoblotting with antibodies against CDP138, IRS-1, Akt, Erk1/2, and β-actin. Right panel: quantification of CDP138 protein levels in fat tissues from lean and obese mice. […]

insulin
phosphorylation of HA-tagged CDP138 detected with PAS antibodies: stimulates phosphorylation
